From US12371428B2 (Exelixis, Inc., priority 2019, dated 2025) come the findings set out here.

pIC50: −log10 of the molar value. Like-named read-outs stand apart in the source and are kept apart here.

What all share (type): cell-based
Experiment [1] deals with AXL (phospho-AXL, Gas6-stimulated A-172 glioblastoma cells) (Homo sapiens (Human), UniProt P30530). In words: AXL autophosphorylation ELISA in A-172 cells (Example E). In short, it runs like this:
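Phospho-AXL was measured by ELISA in lysates of Gas6-stimulated A-172 cells, starved 24 h in serum-free medium and exposed 1 h to an 8-point compound dilution at 0.3% DMSO.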

For experiment [2], the target named is Met (phospho-Met, HGF-stimulated PC-3 prostate cancer cells) (Homo sapiens (Human), UniProt P08581). The experiment can be described thus: Met autophosphorylation ELISA in PC-3 cells (Example F). The note with it: cellular activity; Met autophosphorylation ELISA in PC-3 cells; read-out: c-Met IC50. In short, it runs like this: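 Serum-starved (3 h) PC-3 cells were treated 1 h with compounds (8-point curve, 0.3% DMSO), then stimulated with 100 ng/mL human HGF for 10 min. Lysate phospho-Met (panTyr) was measured by sandwich ELISA, normalised to DMSO and reference-inhibitor controls. IC50 came from 4-parameter logistic fit.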

Experiment [3] has as its target KDR (phospho-KDR, VEGF165-stimulated HUVEC cells) (Homo sapiens (Human), UniProt P35968). In words: KDR autophosphorylation ELISA in HUVEC cells (Example G). The note with it: cellular activity; KDR autophosphorylation ELISA in HUVEC cells. In a few lines: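 Inhibition of VEGF165-driven KDR autophosphorylation is measured in primary human umbilical vein endothelial cells after 24 h serum deprivation. Compound preincubation lasts 1 h before a 5-minute challenge with 100 ng/mL ligand, and phosphorylated receptor is then measured by ELISA in the lysates.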

Experiment [4] addresses Mer (phospho-Mer, MERTK-transfected 293A cells) (Homo sapiens (Human), UniProt Q12866). In words: Mer autophosphorylation ELISA in transient transfected 293A cells (Example H). The note with it: cellular activity; Mer autophosphorylation ELISA in transient transfected 293A cells. In a few lines:
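IC50 from phospho-Mer ELISA of MERTK-transfected 293A cell lysates after 1 h treatment with serially diluted compound in serum-free medium.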

The mark [5] stands for this setting: cellular activity, AXL autophosphorylation ELISA in A-172 cells, read-out: Axl IC50.

Chain of Met (phospho-Met, HGF-stimulated PC-3 prostate cancer cells) (P08581 25-1390): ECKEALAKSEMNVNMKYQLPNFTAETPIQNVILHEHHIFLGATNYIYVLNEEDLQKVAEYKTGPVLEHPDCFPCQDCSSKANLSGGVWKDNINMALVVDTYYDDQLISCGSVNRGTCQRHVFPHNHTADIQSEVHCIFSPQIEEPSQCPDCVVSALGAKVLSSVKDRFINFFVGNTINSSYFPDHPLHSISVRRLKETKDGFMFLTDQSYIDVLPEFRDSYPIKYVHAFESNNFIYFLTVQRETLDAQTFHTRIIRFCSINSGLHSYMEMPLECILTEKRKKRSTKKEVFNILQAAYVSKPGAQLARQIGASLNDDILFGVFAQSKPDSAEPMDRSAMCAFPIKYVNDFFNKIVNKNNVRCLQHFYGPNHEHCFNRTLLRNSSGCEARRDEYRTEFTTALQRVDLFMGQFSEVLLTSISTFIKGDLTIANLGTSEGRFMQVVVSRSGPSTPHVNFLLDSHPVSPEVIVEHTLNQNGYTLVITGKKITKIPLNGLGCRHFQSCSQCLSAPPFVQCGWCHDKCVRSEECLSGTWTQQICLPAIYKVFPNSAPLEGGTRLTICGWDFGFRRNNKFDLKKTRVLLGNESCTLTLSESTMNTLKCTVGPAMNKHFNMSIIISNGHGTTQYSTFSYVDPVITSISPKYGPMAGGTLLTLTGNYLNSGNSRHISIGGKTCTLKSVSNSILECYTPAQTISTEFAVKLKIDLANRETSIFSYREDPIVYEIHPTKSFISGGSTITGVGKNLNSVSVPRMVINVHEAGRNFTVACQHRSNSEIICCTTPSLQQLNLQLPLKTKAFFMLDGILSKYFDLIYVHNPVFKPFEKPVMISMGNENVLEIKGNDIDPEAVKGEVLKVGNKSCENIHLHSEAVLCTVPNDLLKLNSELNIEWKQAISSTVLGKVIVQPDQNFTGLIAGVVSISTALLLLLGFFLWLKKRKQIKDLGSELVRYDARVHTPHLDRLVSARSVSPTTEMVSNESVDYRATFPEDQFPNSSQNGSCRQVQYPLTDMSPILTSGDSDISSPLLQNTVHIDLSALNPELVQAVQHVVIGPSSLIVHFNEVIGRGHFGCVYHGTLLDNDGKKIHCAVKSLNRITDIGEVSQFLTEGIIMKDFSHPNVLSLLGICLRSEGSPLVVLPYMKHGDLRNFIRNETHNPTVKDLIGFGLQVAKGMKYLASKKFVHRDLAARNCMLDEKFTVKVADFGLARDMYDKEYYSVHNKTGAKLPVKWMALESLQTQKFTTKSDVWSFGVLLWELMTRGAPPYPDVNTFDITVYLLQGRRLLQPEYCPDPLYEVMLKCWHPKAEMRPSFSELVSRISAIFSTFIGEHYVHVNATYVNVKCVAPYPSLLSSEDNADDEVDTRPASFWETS
Chain of KDR (phospho-KDR, VEGF165-stimulated HUVEC cells) (P35968 20-1356): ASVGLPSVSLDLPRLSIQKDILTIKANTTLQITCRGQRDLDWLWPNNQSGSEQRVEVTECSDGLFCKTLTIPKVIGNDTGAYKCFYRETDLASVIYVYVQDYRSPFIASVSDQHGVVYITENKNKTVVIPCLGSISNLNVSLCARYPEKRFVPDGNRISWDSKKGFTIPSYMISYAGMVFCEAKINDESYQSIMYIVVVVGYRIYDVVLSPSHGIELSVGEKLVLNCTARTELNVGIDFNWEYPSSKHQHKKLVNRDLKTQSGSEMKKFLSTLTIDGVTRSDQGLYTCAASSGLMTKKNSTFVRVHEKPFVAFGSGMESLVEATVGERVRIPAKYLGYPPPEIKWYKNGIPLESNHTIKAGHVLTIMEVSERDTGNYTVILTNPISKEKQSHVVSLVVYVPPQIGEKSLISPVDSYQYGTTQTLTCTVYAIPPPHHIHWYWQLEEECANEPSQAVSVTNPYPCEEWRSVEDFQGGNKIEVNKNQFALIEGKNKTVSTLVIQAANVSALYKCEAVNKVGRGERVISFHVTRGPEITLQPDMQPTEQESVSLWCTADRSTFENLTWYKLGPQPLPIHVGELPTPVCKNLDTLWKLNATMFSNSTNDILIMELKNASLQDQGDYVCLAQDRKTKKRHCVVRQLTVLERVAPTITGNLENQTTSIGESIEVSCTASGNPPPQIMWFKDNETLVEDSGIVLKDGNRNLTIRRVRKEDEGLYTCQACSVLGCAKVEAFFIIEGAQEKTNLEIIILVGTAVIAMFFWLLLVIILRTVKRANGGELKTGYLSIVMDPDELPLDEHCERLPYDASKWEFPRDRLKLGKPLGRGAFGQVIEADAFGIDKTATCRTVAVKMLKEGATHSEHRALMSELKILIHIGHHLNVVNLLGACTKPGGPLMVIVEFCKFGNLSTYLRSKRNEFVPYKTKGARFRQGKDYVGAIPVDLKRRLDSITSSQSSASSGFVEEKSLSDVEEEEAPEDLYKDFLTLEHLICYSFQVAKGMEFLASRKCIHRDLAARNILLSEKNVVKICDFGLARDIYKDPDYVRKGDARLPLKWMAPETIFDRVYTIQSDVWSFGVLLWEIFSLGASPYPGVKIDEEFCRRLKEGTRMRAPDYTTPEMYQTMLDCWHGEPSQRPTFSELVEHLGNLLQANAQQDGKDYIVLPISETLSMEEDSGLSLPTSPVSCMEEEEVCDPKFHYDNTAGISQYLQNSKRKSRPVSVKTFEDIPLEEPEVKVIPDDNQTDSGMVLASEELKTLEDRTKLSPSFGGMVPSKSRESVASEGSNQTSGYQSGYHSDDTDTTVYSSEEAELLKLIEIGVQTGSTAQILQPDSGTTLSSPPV
Chain of Mer (phospho-Mer, MERTK-transfected 293A cells) (Q12866 21-999): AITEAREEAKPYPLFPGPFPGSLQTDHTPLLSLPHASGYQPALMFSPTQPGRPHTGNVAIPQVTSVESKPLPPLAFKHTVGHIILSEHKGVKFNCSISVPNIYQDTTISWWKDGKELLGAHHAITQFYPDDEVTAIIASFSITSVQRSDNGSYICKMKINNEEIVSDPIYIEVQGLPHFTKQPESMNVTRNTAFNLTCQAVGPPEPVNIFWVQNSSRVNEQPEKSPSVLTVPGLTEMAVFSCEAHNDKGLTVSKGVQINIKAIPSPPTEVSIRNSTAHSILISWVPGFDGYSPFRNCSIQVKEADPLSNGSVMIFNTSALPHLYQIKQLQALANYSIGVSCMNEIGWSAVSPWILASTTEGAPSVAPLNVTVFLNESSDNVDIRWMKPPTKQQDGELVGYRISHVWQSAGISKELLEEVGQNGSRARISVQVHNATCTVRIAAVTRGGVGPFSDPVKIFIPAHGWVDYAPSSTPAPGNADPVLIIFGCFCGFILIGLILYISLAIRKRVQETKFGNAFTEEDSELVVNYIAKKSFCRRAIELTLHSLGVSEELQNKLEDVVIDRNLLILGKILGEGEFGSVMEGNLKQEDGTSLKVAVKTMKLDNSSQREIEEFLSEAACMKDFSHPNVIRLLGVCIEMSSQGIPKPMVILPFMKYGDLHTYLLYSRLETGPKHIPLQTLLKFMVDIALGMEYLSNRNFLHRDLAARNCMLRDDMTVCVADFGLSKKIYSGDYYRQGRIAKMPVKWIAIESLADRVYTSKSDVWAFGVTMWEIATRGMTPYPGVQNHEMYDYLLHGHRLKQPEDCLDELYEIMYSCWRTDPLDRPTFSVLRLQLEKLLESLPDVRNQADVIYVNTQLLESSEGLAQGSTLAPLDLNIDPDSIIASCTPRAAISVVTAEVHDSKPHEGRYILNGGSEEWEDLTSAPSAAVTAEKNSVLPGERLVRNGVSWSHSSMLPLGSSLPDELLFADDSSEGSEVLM
Chain of AXL (phospho-AXL, Gas6-stimulated A-172 glioblastoma cells) (P30530 26-894): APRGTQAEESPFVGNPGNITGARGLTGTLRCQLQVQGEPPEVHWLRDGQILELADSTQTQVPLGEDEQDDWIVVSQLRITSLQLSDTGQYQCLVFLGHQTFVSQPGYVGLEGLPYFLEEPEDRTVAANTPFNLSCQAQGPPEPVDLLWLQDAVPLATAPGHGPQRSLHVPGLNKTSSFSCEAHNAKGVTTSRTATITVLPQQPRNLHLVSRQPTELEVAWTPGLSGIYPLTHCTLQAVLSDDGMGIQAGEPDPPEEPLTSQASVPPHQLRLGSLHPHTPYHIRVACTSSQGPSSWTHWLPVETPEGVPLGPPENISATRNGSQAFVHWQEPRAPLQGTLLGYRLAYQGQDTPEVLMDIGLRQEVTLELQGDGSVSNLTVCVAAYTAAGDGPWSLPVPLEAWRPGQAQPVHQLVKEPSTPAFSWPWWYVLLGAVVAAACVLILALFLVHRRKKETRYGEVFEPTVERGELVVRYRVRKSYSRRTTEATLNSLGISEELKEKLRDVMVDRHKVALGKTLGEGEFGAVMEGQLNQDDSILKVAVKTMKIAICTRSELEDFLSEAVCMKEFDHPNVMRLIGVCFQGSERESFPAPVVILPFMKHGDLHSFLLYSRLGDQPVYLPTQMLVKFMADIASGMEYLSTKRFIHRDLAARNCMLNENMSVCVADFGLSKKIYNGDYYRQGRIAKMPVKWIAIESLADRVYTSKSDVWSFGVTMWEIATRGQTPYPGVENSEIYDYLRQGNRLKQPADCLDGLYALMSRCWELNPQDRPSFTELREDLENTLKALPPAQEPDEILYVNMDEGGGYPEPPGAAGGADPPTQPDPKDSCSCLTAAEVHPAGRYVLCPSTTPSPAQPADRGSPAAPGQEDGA

Consider `COc1cnc2c(Oc3ccc(NC(=O)c4c(C)c(C)nn(-c5ccc(F)cc5)c4=O)cc3)ccnc2c1` [Compound 733, 2-(4-fluorophenyl)-N-[4-[(7-methoxy-1,5-naphthyridin-4-yl)oxy]phenyl]-5,6-dimethyl-3-oxopyridazine-4-carboxamide], for which the negative logarithm of the IC50 (pIC50) was less than 6.52 in experiment [1] (setting [5]), more than 7.00 in experiment [2], less than 6.52 in experiment [3] and more than 7.00 in experiment [4].

In the case of `COc1cnc2c(Oc3ccc(NC(=O)c4c(C)c(C)nn(-c5ccc(F)cc5)c4=O)cc3F)ccnc2c1` [Compound 734, N-[3-fluoro-4-[(7-methoxy-1,5-naphthyridin-4-yl)oxy]phenyl]-2-(4-fluorophenyl)-5,6-dimethyl-3-oxopyridazine-4-carboxamide], the pIC50 in experiment [1] (setting [5]) was 6.52 to 7.00; in experiment [2], more than 7.00; in experiment [3], less than 6.52; in experiment [4], more than 7.00.

Turning to `COc1cc2nccc(Oc3ccc(NC(=O)c4c(C)nc(C)c(-c5ccc(F)cc5C)c4O)cc3)c2nc1Cl` [Compound 735, N-[4-[(6-chloro-7-methoxy-1,5-naphthyridin-4-yl)oxy]phenyl]-5-(4-fluoro-2-methylphenyl)-4-hydroxy-2,6-dimethylpyridine-3-carboxamide], the pIC50 in experiment [1] (setting [5]), in experiment [2], in experiment [3] and in experiment [4] was more than 7.00 throughout.

`COc1cc2nccc(Oc3ccc(NC(=O)c4c(C)nc(C)c(-c5ccc(F)cc5C)c4O)cc3F)c2nc1Cl` [Compound 736, N-[4-[(6-chloro-7-methoxy-1,5-naphthyridin-4-yl)oxy]-3-fluorophenyl]-5-(4-fluoro-2-methylphenyl)-4-hydroxy-2,6-dimethylpyridine-3-carboxamide]: the pIC50 in experiment [1] (setting [5]), in experiment [2], in experiment [3] and in experiment [4] was more than 7.00 throughout.

With `COc1cc2nccc(Oc3cc(F)c(NC(=O)c4c(C)nc(C)c(-c5ccc(F)cc5C)c4O)cc3F)c2nc1Cl` [Compound 737, N-[4-[(6-chloro-7-methoxy-1,5-naphthyridin-4-yl)oxy]-2,5-difluorophenyl]-5-(4-fluoro-2-methylphenyl)-4-hydroxy-2,6-dimethylpyridine-3-carboxamide], the pIC50 in experiment [1] (setting [5]), in experiment [2], in experiment [3] and in experiment [4] was more than 7.00 each time.

For the compound `COc1cc2nccc(Oc3ccc(NC(=O)c4c(C)[nH]nc(-c5ccc(F)cc5C)c4=O)cc3F)c2nc1OC` [Compound 738, N-[4-[(6,7-dimethoxy-1,5-naphthyridin-4-yl)oxy]-3-fluorophenyl]-3-(4-fluoro-2-methylphenyl)-6-methyl-4-oxo-1H-pyridazine-5-carboxamide], the pIC50 in experiment [1] (setting [5]), in experiment [2], in experiment [3] and in experiment [4] was more than 7.00 throughout.

`COc1cc2nccc(Oc3ccc(NC(=O)c4c(C)c(C(C)=O)cn(-c5ccc(F)cc5C)c4=O)cc3F)c2nc1OC` [Compound 739, 5-acetyl-N-[4-[(6,7-dimethoxy-1,5-naphthyridin-4-yl)oxy]-3-fluorophenyl]-1-(4-fluoro-2-methylphenyl)-4-methyl-2-oxopyridine-3-carboxamide]: the negative logarithm of the IC50 (pIC50) in experiment [1] (setting [5]) was more than 7.00; in experiment [2] it was more than 7.00; in experiment [3], less than 6.52; in experiment [4] it was more than 7.00.

As for `C=Cc1c(C)c(C(=O)Nc2ccc(Oc3ccnc4cc(OCCOC)c(OC)nc34)c(F)c2)c(=O)n(-c2ccc(F)cc2)c1C` [Compound 740, 5-ethenyl-N-[3-fluoro-4-[[6-methoxy-7-(2-methoxyethoxy)-1,5-naphthyridin-4-yl]oxy]phenyl]-1-(4-fluorophenyl)-4,6-dimethyl-2-oxopyridine-3-carboxamide], the pIC50 in experiment [1] (setting [5]), in experiment [2], in experiment [3] and in experiment [4] was more than 7.00 each time.

As for `C=Cc1c(C)c(C(=O)Nc2ccc(Oc3ccnc4cc(OCCOC)c(OC)nc34)cc2)c(=O)n(-c2ccc(F)cc2)c1C` [Compound 741, 5-ethenyl-1-(4-fluorophenyl)-N-[4-[[6-methoxy-7-(2-methoxyethoxy)-1,5-naphthyridin-4-yl]oxy]phenyl]-4,6-dimethyl-2-oxopyridine-3-carboxamide], the pIC50 in experiment [1] (setting [5]) is more than 7.00; in experiment [2], more than 7.00; in experiment [3], 6.52 to 7.00; in experiment [4] it was more than 7.00.

On to `C=Cc1c(C)c(C(=O)Nc2ccc(Oc3ccnc4cc(OCCOC)cnc34)c(F)c2)c(=O)n(-c2ccc(F)cc2)c1C` [Compound 742, 5-ethenyl-N-[3-fluoro-4-[[7-(2-methoxyethoxy)-1,5-naphthyridin-4-yl]oxy]phenyl]-1-(4-fluorophenyl)-4,6-dimethyl-2-oxopyridine-3-carboxamide], for which the pIC50 in experiment [1] (setting [5]) is more than 7.00; in experiment [2] it was more than 7.00; in experiment [3], less than 6.52; in experiment [4], more than 7.00.

Turning to `COc1cc(Oc2ccnc3cc(OC)c(OC)nc23)c(F)cc1NC(=O)c1cn(C)c(C)c(-c2ccc(F)cc2)c1=O` [Compound 743, N-[4-[(6,7-dimethoxy-1,5-naphthyridin-4-yl)oxy]-5-fluoro-2-methoxyphenyl]-5-(4-fluorophenyl)-1,6-dimethyl-4-oxopyridine-3-carboxamide], the pIC50 is more than 7.00 in experiment [1] (setting [5]), more than 7.00 in experiment [2], less than 6.52 in experiment [3] and more than 7.00 in experiment [4].

Regarding `COc1cc2nccc(Oc3cc(C)c(NC(=O)c4cn(C)c(C)c(-c5ccc(F)cc5)c4=O)cc3F)c2nc1OC` [Compound 744, N-[4-[(6,7-dimethoxy-1,5-naphthyridin-4-yl)oxy]-5-fluoro-2-methylphenyl]-5-(4-fluorophenyl)-1,6-dimethyl-4-oxopyridine-3-carboxamide], the negative logarithm of the IC50 (pIC50) in experiment [1] (setting [5]) was more than 7.00; in experiment [2], more than 7.00; in experiment [3], less than 6.52; in experiment [4], more than 7.00.

As for `COc1cc(NC(=O)c2cn(C)c(C)c(-c3ccc(F)cc3)c2=O)c(F)cc1Oc1ccnc2cc(OC)c(OC)nc12` [Compound 745, N-[4-[(6,7-dimethoxy-1,5-naphthyridin-4-yl)oxy]-2-fluoro-5-methoxyphenyl]-5-(4-fluorophenyl)-1,6-dimethyl-4-oxopyridine-3-carboxamide], the pIC50 in experiment [1] (setting [5]) is more than 7.00; in experiment [2] it was more than 7.00; in experiment [3] it was less than 6.52; in experiment [4] it was more than 7.00.

With `COc1cc2nccc(Oc3cc(F)c(NC(=O)c4cn(C)c(C)c(-c5ccc(F)cc5)c4=O)cc3C)c2nc1OC` [Compound 746, N-[4-[(6,7-dimethoxy-1,5-naphthyridin-4-yl)oxy]-2-fluoro-5-methylphenyl]-5-(4-fluorophenyl)-1,6-dimethyl-4-oxopyridine-3-carboxamide], the pIC50 in experiment [1] (setting [5]) was more than 7.00; in experiment [2], more than 7.00; in experiment [3] it was less than 6.52; in experiment [4], more than 7.00.

With `COc1cc2nccc(Oc3ccc(NC(=O)c4c(C)c(Br)c(C)n(-c5ccccc5)c4=O)cc3F)c2nc1OC` [Compound 747, 5-bromo-N-[4-[(6,7-dimethoxy-1,5-naphthyridin-4-yl)oxy]-3-fluorophenyl]-4,6-dimethyl-2-oxo-1-phenylpyridine-3-carboxamide], the pIC50 is more than 7.00 in experiment [1] (setting [5]), more than 7.00 in experiment [2], 6.52 to 7.00 in experiment [3] and more than 7.00 in experiment [4].

For `Cn1cc(C(=O)Nc2ccc(Oc3ccnc4cccnc34)c(F)c2)c(=O)c(-c2ccc(F)cc2)c1CO` [Compound 748, N-[3-fluoro-4-(1,5-naphthyridin-4-yloxy)phenyl]-5-(4-fluorophenyl)-6-(hydroxymethyl)-1-methyl-4-oxopyridine-3-carboxamide], the pIC50 in experiment [1] (setting [5]) was more than 7.00; in experiment [2] it was more than 7.00; in experiment [3] it was less than 6.52; in experiment [4], more than 7.00.

Regarding `Cc1ccc2nccc(Oc3ccc(NC(=O)c4cn(C)c(CO)c(-c5ccc(F)cc5)c4=O)cc3F)c2n1` [Compound 749, N-[3-fluoro-4-[(6-methyl-1,5-naphthyridin-4-yl)oxy]phenyl]-5-(4-fluorophenyl)-6-(hydroxymethyl)-1-methyl-4-oxopyridine-3-carboxamide], the pIC50 in experiment [1] (setting [5]) was more than 7.00; in experiment [2], more than 7.00; in experiment [3] it was less than 6.52; in experiment [4] it was more than 7.00.

For the compound `COc1cc2nccc(Oc3ccc(NC(=O)c4c(C)n(C)nc(-c5ccc(F)cc5C)c4=O)cc3F)c2nc1OC` [Compound 750, N-[4-[(6,7-dimethoxy-1,5-naphthyridin-4-yl)oxy]-3-fluorophenyl]-6-(4-fluoro-2-methylphenyl)-2,3-dimethyl-5-oxopyridazine-4-carboxamide], the pIC50 in experiment [1] is more than 7.00; in experiment [2], more than 7.00; in experiment [3] it was 6.52 to 7.00; in experiment [4], more than 7.00.
